Test results reported in PubChem BioAssay (NCI).
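Interpolation was linear, between the two tested concentrations surrounding the appropriate level; five concentrations were tested over 48 hours in 96-well plates. TGI denotes the concentration required for complete inhibition of growth.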

Key:
Test in all cases: DTP human tumour cell line panel, 48 h
[1] = system: 786-0 renal
[2] = system: A498 renal
[3] = system: A549 NSCLC
[4] = system: ACHN renal
[5] = system: BT-549 breast
[6] = system: CAKI-1 renal
[7] = system: CCRF-CEM leukemia
[8] = system: COLO 205 colon
[9] = system: DU-145 prostate
[10] = system: EKVX NSCLC
[11] = system: HCC-2998 colon
[12] = system: HCT-116 colon
[13] = system: HCT-15 colon
[14] = system: HOP-62 NSCLC
[15] = system: HS 578T breast
[16] = system: HT29 colon
[17] = system: K-562 leukemia
[18] = system: KM12 colon
[19] = system: LOX IMVI melanoma
[20] = system: M14 melanoma
[21] = system: MALME-3M melanoma
[22] = system: MCF7 breast
[23] = system: MDA-MB-231 breast
[24] = system: MDA-MB-435
[25] = system: MDA-N
[26] = system: MOLT-4 leukemia
[27] = system: NCI-H226 lung
[28] = system: NCI-H23 lung
[29] = system: NCI-H460 lung
[30] = system: NCI-H522 lung
[31] = system: NCI/ADR-RES ovarian
[32] = system: OVCAR-3 ovarian
[33] = system: OVCAR-4 ovarian
[34] = system: OVCAR-5 ovarian
[35] = system: OVCAR-8 ovarian
[36] = system: PC-3 prostate
[37] = system: RPMI-8226 leukemia
[38] = system: RXF 393 renal
[39] = system: SF-268 CNS
[40] = system: SF-295 CNS
[41] = system: SF-539 CNS
[42] = system: SK-MEL-28 melanoma
[43] = system: SK-MEL-5 melanoma
[44] = system: SK-OV-3 ovarian
[45] = system: SN12C renal
[46] = system: SNB-19 CNS
[47] = system: SNB-75 CNS
[48] = system: SR leukemia
[49] = system: SW-620 colon
[50] = system: T-47D breast
[51] = system: TK-10 renal
[52] = system: U251 CNS
[53] = system: UACC-257 melanoma
[54] = system: UACC-62 melanoma
[55] = system: UO-31 renal
[56] = system: HL-60(TB) leukemia
[57] = system: HOP-92 NSCLC
[58] = system: IGROV1 ovarian
[59] = system: SK-MEL-2 melanoma

CCC(C)C(NC(=O)C(CCCC[N+](=N)N)NC(=O)C(CCCC[N+](=N)N)NC(=O)c1ccc(OC)cc1)C(=O)NC(CCCC[N+](=N)N)C(=O)N1CCCC1C(=O)NC(CCCCN)C(=O)NC(CC(C)C)C(N)=O (stereo not drawn)
TGI [1]: > 100 µM
TGI [2]: > 100 µM
TGI [3]: > 100 µM
TGI [4]: > 100 µM
TGI [5]: > 100 µM
TGI [6]: > 100 µM
TGI [7]: > 100 µM
TGI [8]: > 100 µM
TGI [9]: > 100 µM
TGI [10]: > 100 µM
TGI [11]: > 100 µM
TGI [12]: > 100 µM
TGI [13]: > 100 µM
TGI [14]: > 100 µM
TGI [15]: > 100 µM
TGI [16]: > 100 µM
TGI [17]: > 100 µM
TGI [18]: > 100 µM
TGI [19]: > 100 µM
TGI [20]: > 100 µM
TGI [21]: > 100 µM
TGI [22]: > 100 µM
TGI [23]: > 100 µM
TGI [24]: > 100 µM
TGI [25]: > 100 µM
TGI [26]: > 100 µM
TGI [27]: > 100 µM
TGI [28]: > 100 µM
TGI [29]: > 100 µM
TGI [30]: > 100 µM
TGI [31]: > 100 µM
TGI [32]: > 100 µM
TGI [33]: > 100 µM
TGI [34]: > 100 µM
TGI [35]: > 100 µM
TGI [36]: > 100 µM
TGI [37]: > 100 µM
TGI [38]: > 100 µM
TGI [39]: > 100 µM
TGI [40]: > 100 µM
TGI [41]: > 100 µM
TGI [42]: > 100 µM
TGI [43]: > 100 µM
TGI [44]: > 100 µM
TGI [45]: > 100 µM
TGI [46]: > 100 µM
TGI [47]: > 100 µM
TGI [48]: > 100 µM
TGI [49]: > 100 µM
TGI [50]: > 100 µM
TGI [51]: > 100 µM
TGI [52]: > 100 µM
TGI [53]: > 100 µM
TGI [54]: > 100 µM
TGI [55]: > 100 µM

CC1CCc2sc3[nH]c(=S)n(C)c(=O)c3c2C1 (stereo not drawn)
TGI [1]: > 100 µM
TGI [3]: > 100 µM
TGI [4]: > 100 µM
TGI [5]: > 100 µM
TGI [6]: > 100 µM
TGI [8]: > 100 µM
TGI [9]: > 100 µM
TGI [10]: 94.6 µM
TGI [11]: 82.5 µM
TGI [12]: > 100 µM
TGI [13]: > 100 µM
TGI [56]: 26.2 µM
TGI [14]: > 100 µM
TGI [57]: 44.5 µM
TGI [15]: > 100 µM
TGI [16]: > 100 µM
TGI [58]: > 100 µM
TGI [17]: > 100 µM
TGI [18]: > 100 µM
TGI [19]: > 100 µM
TGI [20]: 99.6 µM
TGI [21]: > 100 µM
TGI [22]: > 100 µM
TGI [23]: > 100 µM
TGI [24]: > 100 µM
TGI [25]: > 100 µM
TGI [26]: > 100 µM
TGI [27]: 87.9 µM
TGI [28]: > 100 µM
TGI [29]: > 100 µM
TGI [30]: 84.5 µM
TGI [31]: > 100 µM
TGI [32]: 62.4 µM
TGI [33]: > 100 µM
TGI [34]: > 100 µM
TGI [35]: > 100 µM
TGI [36]: 72 µM
TGI [37]: > 100 µM
TGI [38]: > 100 µM
TGI [39]: > 100 µM
TGI [40]: > 100 µM
TGI [59]: > 100 µM
TGI [42]: > 100 µM
TGI [43]: > 100 µM
TGI [44]: > 100 µM
TGI [45]: > 100 µM
TGI [46]: > 100 µM
TGI [47]: > 100 µM
TGI [48]: > 100 µM
TGI [49]: > 100 µM
TGI [50]: > 100 µM
TGI [51]: > 100 µM
TGI [52]: > 100 µM
TGI [53]: > 100 µM
TGI [54]: > 100 µM
TGI [55]: 33.6 µM

CC12CCC(=O)[C@@]1(C)CCCC2=O (stereo partly drawn)
TGI [1]: > 100 µM
TGI [3]: > 100 µM
TGI [4]: > 100 µM
TGI [5]: > 100 µM
TGI [6]: > 100 µM
TGI [7]: > 100 µM
TGI [8]: > 100 µM
TGI [9]: > 100 µM
TGI [10]: > 100 µM
TGI [11]: > 100 µM
TGI [12]: > 100 µM
TGI [13]: > 100 µM
TGI [56]: > 100 µM
TGI [14]: > 100 µM
TGI [15]: > 100 µM
TGI [16]: > 100 µM
TGI [58]: > 100 µM
TGI [17]: > 100 µM
TGI [18]: > 100 µM
TGI [19]: > 100 µM
TGI [20]: > 100 µM
TGI [21]: > 100 µM
TGI [22]: > 100 µM
TGI [23]: > 100 µM
TGI [25]: > 100 µM
TGI [26]: > 100 µM
TGI [27]: > 100 µM
TGI [28]: > 100 µM
TGI [29]: > 100 µM
TGI [30]: > 100 µM
TGI [31]: > 100 µM
TGI [33]: > 100 µM
TGI [34]: > 100 µM
TGI [35]: > 100 µM
TGI [36]: > 100 µM
TGI [38]: > 100 µM
TGI [39]: > 100 µM
TGI [40]: > 100 µM
TGI [41]: > 100 µM
TGI [59]: > 100 µM
TGI [42]: > 100 µM
TGI [44]: > 100 µM
TGI [45]: > 100 µM
TGI [46]: > 100 µM
TGI [48]: > 100 µM
TGI [49]: > 100 µM
TGI [50]: > 100 µM
TGI [51]: > 100 µM
TGI [52]: > 100 µM
TGI [53]: > 100 µM
TGI [54]: > 100 µM
TGI [55]: > 100 µM
